# Earlier results as cited in patent publication US20160120180A1, “COMPOSITIONS AND METHODS FOR CONTROLLING REPLANT DISEASES OF PERENNIAL CROPS” (Adjuvants Unlimited LLC, priority 2014, published 2016).
# Legend:
# Meloidogyne incognita [1] = details: in vitro
# nematodes = details: soil-applied treatment on bermudagrass
# test plants = details: emulsion applied to soil at 2 and 4 grams of fatty acid per square foot
# Meloidogyne incognita [2] = details: sprayed on plant foliage as a dilute emulsion
smiles,measurement,setting,value
C=CCCCCCCCCC(=O)O [undecylenic acid],Effect on isolated egg masses,Meloidogyne incognita [1],destroyed isolated egg masses
same,Nematode number,nematodes,reduction in nematode number
same,Effect on test plants (phytotoxicity),test plants,the test plants died
same,Systemic effects on nematodes,Meloidogyne incognita [2],no systemic effects
